# Publication PMC8124365 (International Journal of Molecular Sciences, 2021)
# Like-named read-outs stand apart in the source and are kept apart here.
# What was measured:
# LNCaP [1] = conditions: cited from earlier work; for Kidney Uptake / Tumour Uptake: NOD-SCID gamma (LNCaP), ref Kuo et al., 2018 [30]
# LNCaP [2] = test system: LNCaP; parameters: method as in Benesova et al., 2015 [31]; conditions: BALB/c nu/nu (LNCaP), ref Benesova et al., 2015 [31], cited from earlier work
# LNCaP [3] = conditions: cited from earlier work; for Kidney Uptake / Tumour Uptake: BALB/c nu/nu (LNCaP), ref Kelly et al., 2018 [32]
# PC-3 PIP [4] = test system: PC-3 PIP; parameters: method as in Benesova et al., 2018 [33]; conditions: Athymic nude BALB/c (PC-3 PIP), ref Benesova et al., 2018 [33], cited from earlier work
# tumour = test system: tumour; parameters: method as in Fendler et al. [36]; conditions: after 4 days; ref Fendler et al. [36]; cited from earlier work
# PC-3 PIP [5] = test system: PC-3 PIP; parameters: method as in Banerjee et al., 2019 [3]; conditions: 111 MBq; NOD-SCID gamma (PC-3 PIP); median survival; ref Banerjee et al., 2019 [3]; cited from earlier work
# LNCaP [6] = test system: LNCaP; parameters: method as in Kuo et al., 2018 [30]; conditions: 18.5 MBq; NOD rag gamma (LNCaP); median survival; ref Kuo et al., 2018 [30]; cited from earlier work
# RM1-PGLS [7] = test system: RM1-PGLS; parameters: method as in Fendler et al., 2017 [36]; conditions: C57BL/6 (RM1-PGLS), median survival, ref Fendler et al., 2017 [36], cited from earlier work
# PC-3 PIP [8] = test system: PC-3 PIP; parameters: method as in Umbricht et al., 2018 [60]; conditions: Athymic nude BALB/c (PC-3 PIP), median survival, ref Umbricht et al., 2018 [60], cited from earlier work
# C4-2 xenografts = test: Biodistribution of radioligand in mice with C4-2 xenografts; format: in vivo, Hsd:Athymic Nude-Foxn1^nu mice; conditions: free ^212Pb control
# From the text: For the biodistribution and therapy studies, 105 male Hsd:Athymic Nude-Foxn1^nu mice bred at the Department of Comparative Medicine at the Norwegian Radium Hospital (Oslo University Hospital, Oslo, Norway) were used. For the toxicity study, 13 male BALB/cJRj mice from Janvier Labs (Le Genest-Saint-Isle, France) were used. The studies were approved by the Institutional Committee on Research Animal Care (Department of Comparative Medicine, Oslo University Hospital) and the Norwegian Food Safety Authority (Brumunddal, Norway, approval: FOTS ID 22197, 20/49651). All procedures and experiments involving animals in this study were performed in accordance with the Interdisciplinary Principles and Guidelines for the Use of Animals in Research, Marketing and Education (New York Academy of Sciences, New York, USA) and the EU Directive 2010/63/EU for animal experiments as well as the ARRIVE guidelines. The animals were maintained under specific pathogen-free conditions with ad libitum access to food and water. Cages (1–5 mice per cage) were housed in a scantainer, which was maintained at constant temperature (24 °C) and humidity (60%). The mice were around 4–6 weeks in age and weighed 25–35 g at the start of the study.
# Mice were inoculated subcutaneously in both flanks with 10 × 10^6 C4-2 cells in supplement-free RPMI1640 medium mixed 1:1 with Matrigel Matrix (Corning, NY, USA) in a total volume of 200 µL. In one of the biodistribution experiments, mice were inoculated with 5 × 10^6 PC-3 cells (200 µL, 1:1 medium:Matrigel Matrix) as a negative control. The tumours were allowed to grow to reach a volume of 300–1500 mm^3 for the biodistribution studies and a volume of 30–300 mm^3 for the therapy studies, and tumour-bearing mice were randomised based on tumour size before radioligand injection. Mice were monitored 2–3 times per week for changes in body weight and tumour size and were euthanised by cervical dislocation if any of the following humane end points were reached: >20% weight loss from initial body weight, rapid weight loss (>10% within 2 days), tumours exceed 20 mm in any direction, ulcerate or interfere with normal behaviour, or any signs of severe sickness or discomfort.
# At various time points after injection (from 15 min up to 48 h), organs/tissues were harvested, and radioligand uptake was calculated as a percentage of injected dose per gram tissue (%ID/g). Effective half-lives in selected organs were obtained by fitting monoexponential functions to the biodistribution data (Bq/g vs. time), normalised to 1 MBq/kg, (1) y(t)=a×e^−ln(2)×t/Teffective
# The biological half-lives were then calculated by the following formula:(2) 1/Teffective=1/Tbiological+1/Tphysical
# [9] = test system: subcutaneous tumour models; conditions: 0.02–0.1 MBq; ref [59],[61]; cited from earlier work
# C4-2 = conditions: cited from earlier work; for TI: NOD-SCID gamma (C4-2), median survival, ref Stuparu et al., 2020 [59]; for Toxicity in treated mice: radiosensitive model, ref [59]
# RM1-PGLS [10] = conditions: cited from earlier work
compound,measurement,setting,value
O=C([O-])CN1CCN(CC(=O)[O-])CCN(CC(=O)NCC2CCC(C(=O)N[C@@H](Cc3ccc4ccccc4c3)C(=O)NCCCC[C@H](NC(=O)N[C@@H](CCC(=O)O)C(=O)O)C(=O)O)CC2)CCN(CC(=O)[O-])CC1.[177Lu+3] (stereo partly drawn) [^177Lu-PSMA-617],Kidney Uptake,LNCaP [1]; 1h,97.2 ± 19.4 %ID/G
same,Tumour Uptake,LNCaP [1]; 1h,15.1 ± 5.6 %ID/G
same,Kidney Uptake,LNCaP [1]; 4h,26.6 ± 19.1 %ID/G
same,Tumour Uptake,LNCaP [1]; 4h,14.5 ± 1.8 %ID/G
same,Kidney Uptake,LNCaP [1]; 24h,0.6 ± 0.2 %ID/G
same,Tumour Uptake,LNCaP [1]; 24h,10.9 ± 3.3 %ID/G
same,Tumour level,"LNCaP [1]; after 5 days, ref Kuo et al. [30]",7 %ID/g
same,Kidney Uptake,LNCaP [2]; 1h,137.2 ± 77.8 %ID/G
same,Tumour Uptake,LNCaP [2]; 1h,11.2 ± 4.2 %ID/G
same,Kidney Uptake,LNCaP [2]; 24h,2.1 ± 1.4 %ID/G
same,Tumour Uptake,LNCaP [2]; 24h,10.6 ± 4.5 %ID/G
same,Kidney Uptake,LNCaP [3]; 4h,14.1 ± 3.1 %ID/G
same,Tumour Uptake,LNCaP [3]; 4h,14.4 ± 1.1 %ID/G
same,Kidney Uptake,LNCaP [3]; 24h,0.7 ± 0.1 %ID/G
same,Tumour Uptake,LNCaP [3]; 24h,4.6 ± 0.6 %ID/G
same,Tumour level,"LNCaP [3]; after 4 days, ref Kelly et al. [32]",3.5 %ID/g
same,Kidney Uptake,PC-3 PIP [4]; 1h,9.8 ± 1.4 %ID/G
same,Tumour Uptake,PC-3 PIP [4]; 1h,44.2 ± 12.0 %ID/G
same,Kidney Uptake,PC-3 PIP [4]; 4h,3.4 ± 3.2 %ID/G
same,Tumour Uptake,PC-3 PIP [4]; 4h,56.0 ± 8.0 %ID/G
same,Kidney Uptake,PC-3 PIP [4]; 24h,0.8 ± 0.9 %ID/G
same,Tumour Uptake,PC-3 PIP [4]; 24h,37.3 ± 5.8 %ID/G
same,Tumour level,tumour,0.7 %ID/g
same,TI,PC-3 PIP [5],3.9
same,TI,LNCaP [6],4.1
same,TI,RM1-PGLS [7]; 30 MBq (62 MBq/nmol),1.4
same,TI,RM1-PGLS [7]; 60 MBq (62 MBq/nmol),1.9
same,TI,RM1-PGLS [7]; 120 MBq (62 MBq/nmol),1.9
same,TI,PC-3 PIP [8]; 2 MBq (2 MBq/nmol),1.1
same,TI,PC-3 PIP [8]; 5 MBq (5 MBq/nmol),1.8
[212Pb+2] [^212Pb^2+],Uptake in kidneys,C4-2 xenografts; 1–8 h post injection,34.2–49.0 %ID/g
same,Uptake in liver,C4-2 xenografts; 1–8 h post injection,8.3–9.1 %ID/g
same,Uptake in bones,C4-2 xenografts; at 1–4 h,7.3–10.4 %ID/g
same,Uptake in bones,C4-2 xenografts; at 8 h,1.0–2.6 %ID/g
O=C([O-])CC[C@H](NC(=O)N[C@@H](CCCCNC(=O)[C@H](Cc1ccc2ccccc2c1)NC(=O)[C@H]1CC[C@H](CNC(=O)CN2CCN(CC(=O)[O-])CCN(CC(=O)[O-])CCN(CC(=O)[O-])CC2)CC1)C(=O)[O-])C(=O)[O-].[225Ac].[H+].[H+].[H+] [^225Ac-PSMA-617],Therapeutic Index Range,[9],1.1–6.7
same,TI,C4-2; 0.02 MBq (0.13 MBq/nmol),3.6
same,Toxicity in treated mice,C4-2; 0.02 and 0.04 MBq,transient weight loss
same,TI,C4-2; 0.04 MBq (0.13 MBq/nmol),6.7
same,TI,C4-2; 0.10 MBq (0.13 MBq/nmol),4.2
same,Toxicity in treated mice,C4-2; 0.10 MBq,severe weight loss
same,TI,"RM1-PGLS [10]; 0.03 MBq (0.13 MBq/nmol), Athymic nude mice (RM1-PGLS), median survival, ref Czernin et al., 2020 [61]",1.1
same,Toxicity in treated mice,"RM1-PGLS [10]; 0.03 MBq, more radioresistant model, ref [61]",no signs of toxicity
